Reference: patent publication US10016519B2, “18F-tagged inhibitors of prostate specific membrane antigen (PSMA), their use as imaging agents and pharmaceutical agents for the treatment of prostate cancer” (DEUTSCHES KREBSFORSCHUNGSZENTRUM, priority 2014, dated 2018)

What was measured:
LNCaP cells = experiment: Specific cell uptake and internalization; format: cell-based, human; conditions: for Internalized fraction: (Internalized activity/total activity)*100, LNCaP cells; for Cell surface / Internalised: LNCaP cells, 30 nM 18F-labeled compound, 45 min, 37° C., specific (blocking with 500 μM PMPA), mean±SD n=3
Experimental: FIG. 8: Internalization of compounds PSMA1001/1002/1003. All compounds were labeled with ^18F, and their specific cell surface binding and internalization properties on LNCaP cells were investigated. Specific cell uptake was determined by blocking with 500 μM-PMPA. Values are expressed as % of applied radioactivity bound to 10^5 cells. Data are expressed as mean±SD (n=3).
(§1) For binding studies and in vivo experiments LNCaP cells (metastatic lesion of human prostatic adenocarcinoma, ATCC CRL-1740) were cultured in RPMI medium supplemented with 10% fetal calf serum and Glutamax (PAA, Austria). During cell culture, cells were grown at 37° C. in an incubator with humidified air, equilibrated with 5% CO2. The cells were harvested using trypsin-ethylenediaminetetraacetic acid (trypsin-EDTA; 0.25% trypsin, 0.02% EDTA, all from PAA, Austria) and washed with PBS.
To determine the specific cell uptake and internalization, 10^5 cells were seeded in poly-L-lysine coated 24-well cell culture plates 24 h before incubation. After washing, the cells were incubated with 30 nM of the radiolabeled compounds for 45 min at 37° C. Specific cellular uptake was determined by competitive blocking with 2-(phosphonomethyl)pentanedioic acid (500 μM final concentration, PMPA, Axxora, Loerrach, Germany). Cellular uptake was terminated by washing 3 times with 1 mL of ice-cold PBS. Cells were subsequently incubated twice with 0.5 mL glycine-HCl in PBS (50 mM, pH=2.8) for 5 min to remove the surface-bound fraction. The cells were washed with 1 mL of ice-cold PBS and lysed using 0.3 N NaOH (0.5 mL). The surface-bound and the internalized fractions were measured in a gamma counter. The cell uptake was calculated as percent of the initially added radioactivity bound to 10^5 cells [% ID/10^5 cells].

PSMA = molecular target: T1, PSMA (Homo sapiens, UniProt Q04609); experiment: Competitive cell binding assay (binding affinity); conditions: LNCaP cells, competition against 68Ga-labeled [Glu-urea-lys(Ahx)]2-HBED-CC radioligand, 0-5000 nM analyte
T1 construct: host or cells: LNCaP
T1 sequence (Q04609 whole entry): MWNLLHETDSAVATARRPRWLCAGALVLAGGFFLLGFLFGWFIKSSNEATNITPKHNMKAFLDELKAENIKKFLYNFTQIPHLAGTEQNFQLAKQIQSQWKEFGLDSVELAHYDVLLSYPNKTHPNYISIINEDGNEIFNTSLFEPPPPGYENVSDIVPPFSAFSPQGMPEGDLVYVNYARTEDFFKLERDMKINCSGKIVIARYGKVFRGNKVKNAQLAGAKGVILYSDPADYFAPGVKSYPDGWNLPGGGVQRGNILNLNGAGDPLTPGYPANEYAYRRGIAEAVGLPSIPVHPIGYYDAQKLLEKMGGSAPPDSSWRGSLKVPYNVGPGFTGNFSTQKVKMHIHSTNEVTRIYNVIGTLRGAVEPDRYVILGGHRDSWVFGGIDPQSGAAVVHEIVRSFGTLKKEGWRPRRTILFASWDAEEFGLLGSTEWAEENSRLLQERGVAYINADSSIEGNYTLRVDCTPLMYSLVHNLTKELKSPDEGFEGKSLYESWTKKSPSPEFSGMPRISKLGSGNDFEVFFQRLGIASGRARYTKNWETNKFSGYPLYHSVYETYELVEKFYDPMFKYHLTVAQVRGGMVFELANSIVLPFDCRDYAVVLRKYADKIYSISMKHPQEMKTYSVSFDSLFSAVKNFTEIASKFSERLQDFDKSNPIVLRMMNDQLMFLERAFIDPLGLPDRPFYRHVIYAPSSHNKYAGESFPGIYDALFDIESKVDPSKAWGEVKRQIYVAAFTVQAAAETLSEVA
Experimental: as §1
The competitive cell binding assay and internalization experiments were performed as described previously (Eder, M. et al., Bioconj. Chem 2012, 23, 688-697) Briefly, the respective cells (10^5 per well) were incubated with the radioligand (^68Ga-labeled [Glu-urea-lys(Ahx)]2-HBED-CC (Schafer, M. et al., EJNMMI Res. 2012; 2, 23) in the presence of 12 different concentrations of analyte (0-5000 nM, 100 μL/well). After incubation, washing was carried out using a multiscreen vacuum manifold (Millipore, Billerica, Mass.). Cell-bound radioactivity was measured using a gamma counter (Packard Cobra II, GMI, Minnesota, USA). The 50% inhibitory concentration (IC^50) was calculated by fitting the data using a nonlinear regression algorithm (GraphPad Software).
Experiments were performed three times. Reference is made to Table A below.

[1] = test system: mice bearing LNCaP tumor xenografts; experiment: Dynamic microPET imaging; format: in vivo
Experimental: FIG. 9: PET imaging of PSMA-1001. Whole-body coronal microPET images of an athymic male nude mice bearing LNCaP tumor xenografts. The tumor-targeting efficacy and pharmacokinetic properties of ^18F-PSMA-1001 were evaluated by dynamic microPET scans. Approximately 15 MBq/mouse were injected. […] The values are expressed as mean SUV (standardized uptake values).
Whole-body coronal microPET images of an athymic male nude mice bearing LNCaP tumor xenografts. […] Approximately 15 MBq/mouse were injected. […] The values are expressed as mean SUV (standardized uptake values).
(§2) For in vivo experiments, 8 week old BALB/c nu/nu mice were subcutaneously inoculated into the right trunk with 5×10^6 LNCaP- or PC3-cells in 50% Matrigel. When the size of tumor was approximately 1 cm^3, the radiolabeled compound was injected via the tail vein (ca. 30 MBq, 60 pmol for μPET imaging; ca. 1 MBq, 60 pmol for organ distribution).
For the microPET studies, 10-25 MBq of the radiolabeled compounds in a volume of 0.15 mL (˜60 pmol) were injected via a lateral tail vein into mice bearing LNCaP tumor xenografts. The anesthetized animals (2% sevoflurane, Abbott, Wiesbaden, Germany) were placed in prone position into the Inveon small animal PET scanner (Siemens, Knoxville, Tenn., USA) to perform dynamic microPET scans and 20 min-static scans.

[2] = test system: BALB/c nu/nu mice bearing LNCaP tumor; experiment: Organ distribution; format: in vivo; conditions: 1 h after injection, tail vein, 60 pmol, n=3
Experimental: as §2
The F-18 labeled compounds were injected via tail vein (1-2 MBq per mouse; 60 pmol). At 1 h after injection, the animals were sacrificed. Organs of interest were dissected, blotted dry, and weighed. The radioactivity was measured with a gamma counter (Packard Cobra II, GMI, Minnesota, USA) and calculated as % ID/g.

Row | Compound | Internalized fraction (LNCaP cells) | Cell surface (LNCaP cells) | Internalised (LNCaP cells) | IC50 (PSMA) | Tumor standardized uptake value (SUVmean,BW) ([1]; LNCaP tumor xenograft, time not stated) | Uptake in the kidneys (microPET) ([1]; LNCaP xenograft mice) | Uptake in the liver (microPET) ([1]; LNCaP xenograft mice) | Organ distribution, Blood, Mean [2] | Organ distribution, Brain, Mean [2] | Organ distribution, Heart, Mean [2] | Organ distribution, Kidney, Mean [2] | Organ distribution, LNCaP Tumor, Mean [2] | Organ distribution, Liver, Mean [2] | Organ distribution, Lung, Mean [2] | Organ distribution, Muscle, Mean [2] | Organ distribution, Small intestine, Mean [2] | Organ distribution, Spleen, Mean [2]
1 | O=C(O)CC[C@H](NC(=O)N[C@@H](CCCCNC(=O)[C@H](Cc1ccc2ccccc2c1)NC(=O)[C@H]1CC[C@H](CNC(=O)c2ccc([18F])nc2)CC1)C(=O)O)C(=O)O [PSMA-1001, (Glu)-(Urea)-((D)-Lys)-(2-Naphthylalanine)-(4-(Aminomethyl)cyclohexanecarboxylic acid)-FN] | 26% | 8.4 ± 1.9 % ID/10^5 cells | 2.9 ± 0.3 % ID/10^5 cells | 3 nM | 0.5 | increasing uptake in the kidneys | high uptake in the liver |  |  |  |  |  |  |  |  |  | 
2 | O=C(O)CC[C@H](NC(=O)N[C@@H](CCCCNC(=O)[C@H](Cc1ccc2ccccc2c1)NC(=O)c1ccc(CNC(=O)c2ccc([18F])nc2)cc1)C(=O)O)C(=O)O [PSMA-1003, (Glu)-(Urea)-((D)-Lys)-(2-Naphthylalanine)-(4-(Aminomethyl)benzoic acid)-FN] |  |  |  |  |  |  |  | 2.02 % ID/g | 0.07 % ID/g | 0.25 % ID/g | 32.37 % ID/g | 3.4 % ID/g | 3.02 % ID/g | 0.65 % ID/g | 0.25 % ID/g | 8.49 % ID/g | 1.96 % ID/g
3 | O=C(O)CCC(NC(=O)NC(CCCCNC(=O)C(Cc1ccc2ccccc2c1)NC(=O)c1ccc(CNC(=O)CO/N=C\C([18F])C(O)C(O)C(O)CO)cc1)C(=O)O)C(=O)O (stereo not shown) [PSMA-1005, (Glu)-(Urea)-(Lys)-(2Nal)-(Bn)-(Acetyl-FDG-Oxim)] | 63% | 1.1 ± 0.5 % ID/10^5 cells | 0.7 ± 0.4 % ID/10^5 cells | 7 nM |  |  |  |  |  |  |  |  |  |  |  |  | 
4 | (Glu)-(Urea)-((D)-Lys)-(2-Naphthylalanine)-(4-(Aminomethyl)benzoic acid)-FN [PSMA-1003] | 38% | 11.7 ± 1.2 % ID/10^5 cells | 7.1 ± 0.8 % ID/10^5 cells | 3 nM |  |  |  |  |  |  |  |  |  |  |  |  | 
